From US9464053B2, “Compositions for reducing Aβ 42 production and their use in treating alzheimer's disease (AD)” (KAREUS THERAPEUTICS SA, priority 2010, dated 2016)
Where a name gives a salt, the structure may show the parent alone. Read-outs that look alike come from different tables or passages of the source. Marks after values point to notes of the source that are not given here. Each block holds one compound with its values, some of them ahead of it.

How the values were obtained:
Aβ42 secretion = test: Reduction of Aβ42 production in human neuronal SH-SY5Y cells (sandwich ELISA of cell media); type: cell-based; conditions: read-out: Aβ42 IC50
Procedure: We used the human Neuroblastoma SH-SY5Y cells for drug testing as a model for Aβ42 production. […] Cell toxicity was monitored using the MTT assay and all data reported are corrected for any cell loss.
The capture antibody, detection antibody and secondary antibody as well as standard purified preparations of Aβ42 were obtained from Sigma-Aldrich. Cells were cultured for 24 h in the presence or absence of compounds and the conditioned medium was subjected to sELISA.
Cells were incubated overnight with increasing concentrations the compounds. The cell media was then harvested and Aβ42 in the media was quantitated using sandwich ELISA.

Aβ-42 levels in brain = test: Brain Aβ-42 levels in rat after two weeks oral treatment (ELISA); type: in vivo; conditions: for Aβ-42 levels Mean ± SE: rat brain, soluble fraction; for Percentage change: vs Control
Procedure: Animals are randomized into different treatment groups based on body weight. The test compounds are administered orally for 2 weeks while the control animals are administered the vehicle alone.
At the end of the study, animals are sacrificed 2 hours after the last dose and brain samples are excised and immediately frozen on dry ice. The frozen brains are homogenized in 3 volumes (w/v) of ice-cold 0.2% Diethylamine containing 50 mM NaCl, pH 10, and protease inhibitors, and then centrifuged at 15000 rpm at 4° C. for 30 min using a centrifuge. The resulting supernatant is retained as the soluble fraction and neutralized by addition of 10% 0.5 M Tris-HCl, pH 6.8.
Ar3-42 levels in brain tissue extracts were determined by ELISA. […] 100 μL of this was coated per well in a 96 well immunoplate (NUNC) at 4° C. for 16-18 hours. The plate was washed 3× with 230 μL of wash buffer. The wells were then blocked with 150 μL of blocking buffer for 1 hour. The plate was washed 3× with 230 μL of wash buffer. Samples, standard (2500-1.1 ng/ml) and blank were added to the appropriate wells and incubated with mild shaking for 2 hours. The plate was then washed 3× with 230 μL of wash buffer. […] 100 μL of this was added per well and incubated with mild shaking for 2 hours. The plate was washed 3× with 230 μl of wash buffer. 100 lit of Detection antibody, Anti-rabbit IgG whole molecule HRP conjugate (Sigma A6154 diluted 1:1000 with 1% BSA) added in to the wells and incubated for 2 hours with mild shaking. The plate was washed 3× with 230 μl of wash buffer followed by 100 μL of Strepavidin HRP (1:200 diluted with 1% BSA). The plate was 3× with 230 μL of wash buffer and 100 μL of TMB/H2O2 substrate was added and incubated for 20 minutes. The reaction was topped by adding 50 μL of 2N H2SO4 and the absorbance was measured at 450/570 nm in a microplate reader (BioTek)

Wistar rats = test: Morris water maze task, scopolamine memory deficit; type: in vivo, rat; conditions: mean, p.o., scopolamine-treated
Procedure: Male wistar rats are used for this study. The Water maze consists of a 1.8 m diameter; 0.6 m high circular tank filled with water (24±2° C.). A platform 16 cm diameter will be placed 1.0 cm below the water surface in the center of one of the four imaginary quadrants, which remains constant for all the rats. […] Rats were lowered gently, feet first into water. A rat was allowed to swim for 60 s to find the platform. If the platform was found during this time the trial was stopped and rat was allowed to stay on platform for 30 s before being removed from the maze. If the platform was not found during 60 s trial, then the rat was manually placed on the platform facing a visual cue and allowed to stay on platform for 30 s before being removed from the maze. The rats were taken off the platform (ensuring that the rat sees the investigator's hand from the front before removal) and dried with a towel gently. Each rat received 4 trials in a day. The maze has 8 starting points. On the first and third day the animals started from 1st, 3rd, 5th & 7th starting points. On the second and fourth day the animals started from 2nd, 4th, 6th & […] starting points. Retention of the task was assessed on 5th day in which each animal received a single 120 s probe trial during which platform was removed from the pool. Rats were not treated prior to retention trail. Rats were placed under a heating lamp for 5 min before being returned to its home cage. Latency to reach the platform ([…]), swim speed (cm/s) and path length (cm) was measured in acquisition trials. Percentage time spent in target quadrant (quadrant in which platform is placed during acquisition training) and swim speed (cm/s) was calculated in probe trial. The animals were tracked and the data was generated using the Video Mot 2 software. Experimentation was carried out over a period of 10 days i.e. first 6 animals was experimented on first five days and the next 6 animals was experimented on next five days (Pretreatment and testing schedule was initiated accordingly such that all animals receive 9 doses of vehicle or test drug). Data obtained was analyzed by Repeated measures Two way ANOVA followed by Bonferroni post tests by using the Graph pad prism software package.

soluble brain aβ-42 = test: Tg2576 transgenic mouse model, soluble brain aβ-42 (ELISA); type: in vivo; conditions: Tg 2576 mice, 4 weeks, 50 mg/kg orally daily
Procedure: (§1) The study used 6-month old Tg (HuApp695.K670-M671L) 2576 transgenic and age-matched C57B16/SJL non-transgenic control mice (Hsiao K, Chapman P, Nilsen S, Eckman C, Harigaya Y, et al. Correlative memory deficits, Abeta elevation, and amyloid plaques in transgenic mice. Science. 1996; 274:99-102). Mice were obtained from Jackson Labs and a colony was established. Tg2576 transgenic mice over-express human APP with the double Swedish mutation. Tg2756 and control mice were treated for a period of 4 weeks with either 1) vehicle alone n=10), 2) compound 9 (50 mg/kg dosed orally; n=10). Soluble brain aβ-42 and aβ-40 were measured using the typical ELISA protocol described before.

soluble brain aβ-40 = test: Tg2576 transgenic mouse model, soluble brain aβ-40 (ELISA); type: in vivo; conditions: Tg 2576 mice, 4 weeks, 50 mg/kg orally daily
Procedure: as §1

[1] = SH-SY5Y cells incubated overnight, Aβ42 in media by sandwich ELISA
[2] = Day-1 acquisition trials, 1 mg/kg
[3] = Day-1 acquisition trials, 3 mg/kg
[4] = Day-1 acquisition trials, 10 mg/kg
[5] = Day-2 acquisition trials, 1 mg/kg
[6] = Day-2 acquisition trials, 3 mg/kg
[7] = Day-2 acquisition trials, 10 mg/kg
[8] = Day-3 acquisition trials, 1 mg/kg
[9] = Day-3 acquisition trials, 3 mg/kg
[10] = Day-3 acquisition trials, 10 mg/kg
[11] = Day-4 acquisition trials, 1 mg/kg
[12] = Day-4 acquisition trials, 3 mg/kg
[13] = Day-4 acquisition trials, 10 mg/kg

IC50 (Aβ42 secretion; [1]): > 52.2 µM
SMILES: C=CCc1ccc(OC(=O)C(CCC(=O)O)NC(=O)c2cccnc2)c(OC)c1 (centres unmarked) [Compound 7, 2-[pyridine-3-carbonyl-amino]-pentane dioic acid-1-(4-allyl-2-methoxyphenyl)ester]

IC50 (Aβ42 secretion; [1]): 18.7 µM
SMILES: C=CCc1ccc(OC(=O)CC(OC(=O)c2cccnc2)C(=O)OC)c(OC)c1 (centres unmarked) [Compound 9, 2-(Pyridine-3-carbonyloxy)-succinic acid 4-(4-allyl-2-methoxy-phenyl) ester 1-methyl ester]
Aβ-42 levels Mean ± SE (Aβ-42 levels in brain; 10 mg/kg oral, 2 weeks): 44.14 ± 7.88 ng/mg protein
Aβ-42 levels Mean ± SE (Aβ-42 levels in brain; 25 mg/kg oral, 2 weeks): 31.03 ± 3.98 ng/mg protein
Aβ-42 levels Mean ± SE (Aβ-42 levels in brain; 50 mg/kg oral, 2 weeks): 21.85 ± 1.75 ng/mg protein
Percentage change (Aβ-42 levels in brain; 10 mg/kg oral, 2 weeks): −22%
Percentage change (Aβ-42 levels in brain; 25 mg/kg oral, 2 weeks): −45%
Percentage change (Aβ-42 levels in brain; 50 mg/kg oral, 2 weeks): −61%
Path length (Wistar rats; [2]): 1423.43 cm
Swim speed (Wistar rats; [2]): 26.53 cm/s
Target latency (Wistar rats; [2]): 53859.40 ms
Path length (Wistar rats; [3]): 1329.08 cm
Swim speed (Wistar rats; [3]): 25.77 cm/s
Target latency (Wistar rats; [3]): 50283.22^ ms
Path length (Wistar rats; [4]): 1480.57 cm
Swim speed (Wistar rats; [4]): 26.93 cm/s
Target latency (Wistar rats; [4]): 54445.94 ms
Path length (Wistar rats; [5]): 1619.28 cm
Swim speed (Wistar rats; [5]): 30.67 cm/s
Target latency (Wistar rats; [5]): 51421.60 ms
Path length (Wistar rats; [6]): 1503.53 cm
Swim speed (Wistar rats; [6]): 29.97 cm/s
Target latency (Wistar rats; [6]): 48347.97^ ms
Path length (Wistar rats; [7]): 1755.96 cm
Swim speed (Wistar rats; [7]): 31.99 cm/s
Target latency (Wistar rats; [7]): 53382.85 ms
Path length (Wistar rats; [8]): 1414.4745^ cm
Swim speed (Wistar rats; [8]): 31.07 cm/s
Target latency (Wistar rats; [8]): 43128.23 ms
Path length (Wistar rats; [9]): 1038.10** cm
Swim speed (Wistar rats; [9]): 28.45** cm/s
Target latency (Wistar rats; [9]): 32780.27** ms
Path length (Wistar rats; [10]): 1509.45 cm
Swim speed (Wistar rats; [10]): 30.89^ cm/s
Target latency (Wistar rats; [10]): 45171.54 ms
Path length (Wistar rats; [11]): 1233.92* cm
Swim speed (Wistar rats; [11]): 29.51* cm/s
Target latency (Wistar rats; [11]): 40643.54 ms
Path length (Wistar rats; [12]): 946.10*** cm
Swim speed (Wistar rats; [12]): 28.57*** cm/s
Target latency (Wistar rats; [12]): 31915.04*** ms
Path length (Wistar rats; [13]): 1254.41^ cm
Swim speed (Wistar rats; [13]): 29.36** cm/s
Target latency (Wistar rats; [13]): 40663.06 ms
reduction of brain levels of soluble aβ-42 (soluble brain aβ-42): 22%
reduction of brain levels of soluble aβ-40 (soluble brain aβ-40): 23%

IC50 (Aβ42 secretion; [1]): 15.9 µM
SMILES: C=CCc1ccc(OC(=O)CNC(=O)c2cccnc2)c(OC)c1 [Compound 11, [(pyridine-3-carbonyl)-amino]-acetic acid 4-allyl-2-methoxy-phenyl ester]

IC50 (Aβ42 secretion; [1]): 26.1 µM
SMILES: C=CCc1ccc(OC(=O)CCCNC(=O)c2cccnc2)c(OC)c1 [Compound 13, 4[(pyridine-3-carbonyl)-amino]-butyric acid-4-allyl-2-methoxy phenyl ester]

IC50 (Aβ42 secretion; [1]): > 52.2 µM
SMILES: C=CCc1ccc(OC(=O)C(CC(C)C)NC(=O)c2cccnc2)c(OC)c1 (centres unmarked) [Compound 15, 4-methyl-2-[pyridine-3-carbonyl]-amino-pentanoic acid-4-allyl-2-methoxy phenyl ester]

Further lines, the compound ahead of its results:

SMILES: C=CCc1ccc(OC(=O)COC(=O)c2cccnc2)c(OC)c1 (as salt: hydrochloride) [Compound 8, nicotinic acid 4-allyl-2-methoxy-phenoxycarbonylmethyl ester]
melting point: 109.3 to 111.2 °C

SMILES: C=CCc1ccc(OC(=O)C(CCSC)NC(=O)c2cccnc2)c(OC)c1 (centres unmarked) [Compound 2, 4-methyl-sulfanyl-2-[(pyridine-3carbonyl)-amino] butyric acid-4-allyl-2-methoxy phenyl ester]
IC50 (Aβ42 secretion; [1]): > 52.2 µM

SMILES: C=CCc1ccc(OC(=O)C(NC(=O)c2cccnc2)C(C)C)c(OC)c1 (centres unmarked) [Compound 3, 3-methyl-2-[pyridine-3-carbonyl]-amino-butyric acid-4-allyl-2-methoxy phenyl ester]
IC50 (Aβ42 secretion; [1]): > 52.2 µM

SMILES: C=CCc1ccc(OC(=O)C(Cc2c[nH]c3ccccc23)NC(=O)c2cccnc2)c(OC)c1 (centres unmarked) [Compound 4]
IC50 (Aβ42 secretion; [1]): > 52.2 µM

SMILES: C=CCc1ccc(OC(=O)C(Cc2ccc(O)cc2)NC(=O)c2cccnc2)c(OC)c1 (centres unmarked) [Compound 5, 3-(4-hydroxyphenyl)2-[(pyridine-3-carbonyl)amino]propionic acid-4-allyl-2-methoxy phenyl ester]
IC50 (Aβ42 secretion; [1]): > 52.2 µM

SMILES: C=CCc1ccc(OC(=O)C(NC(=O)c2cccnc2)C(C)CC)c(OC)c1 (centres unmarked) [Compound 6, 3-methyl-2-[pyridine-3-carbonyl]-amino-pentanoic acid-4-allyl-2-methoxy phenyl ester]
IC50 (Aβ42 secretion; [1]): > 52.2 µM

SMILES: C=CCc1ccc(OC(=O)COC(=O)c2cccnc2)c(OC)c1 [Compound 8, nicotinic acid 4-allyl-2-methoxy-phenoxycarbonylmethyl ester]
IC50 (Aβ42 secretion; SH-SY5Y): > 15 µM

SMILES: C=CCc1ccc(OC(=O)C2CCCN2C(=O)c2cccnc2)c(OC)c1 (centres unmarked) [Compound 10, 1-(pyridine-3-carbonyl)-pyrrolidine-2-carboxylic acid 4-allyl-2-methoxy-phenyl ester]
IC50 (Aβ42 secretion; [1]): 33.4 µM

SMILES: C=CCc1ccc(OC(=O)C(C)NC(=O)c2cccnc2)c(OC)c1 (centres unmarked) [Compound 14, 4-allyl-2-methoxyphenyl 2-(nicotinamido) propanoate]
IC50 (Aβ42 secretion; [1]): 15.4 µM

SMILES: CCC(C)(C)C(=O)O[C@H]1C[C@@H](C)C=C2C=C[C@H](C)[C@H](CC[C@@H]3C[C@@H](O)CC(=O)O3)[C@H]21 [Simvastatin, reference compound]
Percentage change (Aβ-42 levels in brain; Simvastatin 250 mg/kg oral, group terminated on day 12): 8%
